Assay results from patent publication US11512053B2, “Arginine methyltransferase inhibitors and uses thereof” (priority 2013, dated 2022).
pIC50: −log10 of the molar value. Read-outs that look alike come from different tables or passages of the source.

Assays:
[1] = system: mono-methyl arginine in RKO cells; assay: RKO Methylation Assay, In Cell Western (ICW) for detection of mono-methyl arginine and DNA content; assay type: cell-based; settings: Homo sapiens, RKO, 72 h, RKO cells, read-out: In Cell Western EC30
How it was run: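 RKO cells were treated with compound for 72 hours at 37 °C, methanol-fixed and stained overnight at 4 °C with anti-mono-methyl arginine (1:200), with DRAQ5 for DNA. Odyssey 800/700 nm intensity ratio was normalized to DMSO and 20 μM reference-compound controls. EC30 from triplicate nine-point curves.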

[2] = target: full-length human PRMT8 isoform 1 (Homo sapiens, UniProt Q9NR22); assay: PRMT8 Biochemical Assay (3H-SAM Flashplate, peptide substrate); settings: read-out: Biochemical IC50 PRMT8
How it was run: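 Full-length human PRMT8 (1.5 nM, E. coli-expressed, GST removed) preincubated 30 min at room temperature with compound, then reacted with 50 nM 3H-SAM plus 550 nM cold SAM and 150 nM biotinylated H4 31-45 peptide in 20 mM Bicine pH 7.6, 1 mM TCEP, 0.005% BSG, 0.002% Tween 20, 2% DMSO. Quenched with 400 uM cold SAM; labelled peptide captured on streptavidin Flashplate, % inhibition versus 1 mM SAH and DMSO controls fitted to 4- or 3-parameter curve.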

[3] = 72 hours compound incubation, mono-methyl arginine signal normalised to DNA content (DRAQ5), percent activation vs 20 μM reference compound
[4] = 72 hours incubation, mono-methyl arginine signal normalised to DNA content, single experiment or average of multiple experiments
[5] = single experiment or average of multiple experiments

full-length human PRMT8 isoform 1, sequence (Q9NR22 whole entry, canonical isoform): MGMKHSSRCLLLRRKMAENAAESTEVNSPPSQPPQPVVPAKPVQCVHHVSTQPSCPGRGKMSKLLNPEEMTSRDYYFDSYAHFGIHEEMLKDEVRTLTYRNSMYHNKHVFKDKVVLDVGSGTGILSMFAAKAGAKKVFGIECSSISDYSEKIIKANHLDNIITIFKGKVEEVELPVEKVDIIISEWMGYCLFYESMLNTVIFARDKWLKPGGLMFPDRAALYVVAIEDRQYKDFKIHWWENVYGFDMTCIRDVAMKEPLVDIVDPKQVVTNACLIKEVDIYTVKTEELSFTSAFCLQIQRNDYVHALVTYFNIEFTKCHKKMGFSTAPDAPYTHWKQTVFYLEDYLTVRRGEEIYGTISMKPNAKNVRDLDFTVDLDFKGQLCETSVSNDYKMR

| SMILES | EC30 [1, 3] | EC30 [1, 4] | pIC50 [2] | pIC50 [2, 5] |
| --- | --- | --- | --- | --- |
| CNCCN(C)Cc1c[nH]nc1[C@H]1CC[C@@H](C(=O)N(C)CCOc2ccccc2)CC1 [Compound 259] | < 3000 nM | 408 nM | > 7.00 | 7.77 |
| CNCCN(C)Cc1c[nH]nc1[C@H]1CC[C@@]2(CCC(C)(C)O2)CC1 [Compound 260] | < 3000 nM | 207 nM | > 7.00 | 7.43 |
| CNCCN(C)Cc1c[nH]nc1[C@H]1CC[C@@H](N(CCOC)C(=O)CCC(C)C)CC1 [Compound 261] | < 3000 nM | 289 nM | > 7.00 | 7.78 |
| CNCCN(C)Cc1c[nH]nc1C1CCC(C)(C)[C@H](C(=O)NCC(C)C)C1 (stereo partly shown) [Compound 262] | < 3000 nM | 289 nM | > 7.00 | 7.14 |
